Experimental data as given in BindingDB's records for doi:10.1016/s0006-2952(02)01515-0 (Aventis Pharma, 2003).

Columns and labels:
Histamine H2 receptor = Histamine H2 receptor (Cavia porcellus, UniProt P47747)
[1] = molecular target: Alpha-1A adrenergic receptor (Rattus norvegicus, UniProt P43140)
Hrh3 protein = Hrh3 protein (Rattus norvegicus, UniProt Q5PPG3)
[2] = molecular target: Muscarinic acetylcholine receptor M3 (Homo sapiens, UniProt P20309)
Histamine H1 receptor = Histamine H1 receptor (Cavia porcellus, UniProt P31389)
Histamine H1 receptor, sequence (P31389 whole entry): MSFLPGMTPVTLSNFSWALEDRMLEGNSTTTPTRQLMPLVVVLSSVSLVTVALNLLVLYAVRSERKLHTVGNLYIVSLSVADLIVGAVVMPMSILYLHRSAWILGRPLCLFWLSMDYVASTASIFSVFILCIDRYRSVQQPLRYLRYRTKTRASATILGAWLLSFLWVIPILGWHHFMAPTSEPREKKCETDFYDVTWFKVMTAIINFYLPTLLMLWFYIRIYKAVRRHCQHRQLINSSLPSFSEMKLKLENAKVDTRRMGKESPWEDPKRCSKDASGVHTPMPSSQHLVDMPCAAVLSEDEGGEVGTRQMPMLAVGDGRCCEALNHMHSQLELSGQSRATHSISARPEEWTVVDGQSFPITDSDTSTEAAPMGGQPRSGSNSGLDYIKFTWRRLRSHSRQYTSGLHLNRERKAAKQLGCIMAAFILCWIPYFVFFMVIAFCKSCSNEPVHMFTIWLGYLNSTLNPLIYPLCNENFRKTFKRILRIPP

[3] = molecular target: Muscarinic acetylcholine receptor M2 (Homo sapiens, UniProt P08172)
Muscarinic acetylcholine receptor M2, sequence (P08172 whole entry): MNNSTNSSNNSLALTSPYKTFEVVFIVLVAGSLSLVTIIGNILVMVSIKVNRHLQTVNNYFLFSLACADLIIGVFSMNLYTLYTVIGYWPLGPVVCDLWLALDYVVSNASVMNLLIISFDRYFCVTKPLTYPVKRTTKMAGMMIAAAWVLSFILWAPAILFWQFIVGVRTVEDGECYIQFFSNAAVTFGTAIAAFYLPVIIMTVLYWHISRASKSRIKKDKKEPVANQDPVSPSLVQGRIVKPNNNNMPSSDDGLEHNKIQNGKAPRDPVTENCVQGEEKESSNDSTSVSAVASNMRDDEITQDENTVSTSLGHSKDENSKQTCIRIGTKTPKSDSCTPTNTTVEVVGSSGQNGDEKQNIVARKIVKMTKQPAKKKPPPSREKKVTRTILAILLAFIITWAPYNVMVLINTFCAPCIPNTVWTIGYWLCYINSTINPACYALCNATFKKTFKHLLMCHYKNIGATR

D(1A) dopamine receptor = D(1A) dopamine receptor (Homo sapiens, UniProt P21728)
D(1A) dopamine receptor, sequence (P21728 whole entry): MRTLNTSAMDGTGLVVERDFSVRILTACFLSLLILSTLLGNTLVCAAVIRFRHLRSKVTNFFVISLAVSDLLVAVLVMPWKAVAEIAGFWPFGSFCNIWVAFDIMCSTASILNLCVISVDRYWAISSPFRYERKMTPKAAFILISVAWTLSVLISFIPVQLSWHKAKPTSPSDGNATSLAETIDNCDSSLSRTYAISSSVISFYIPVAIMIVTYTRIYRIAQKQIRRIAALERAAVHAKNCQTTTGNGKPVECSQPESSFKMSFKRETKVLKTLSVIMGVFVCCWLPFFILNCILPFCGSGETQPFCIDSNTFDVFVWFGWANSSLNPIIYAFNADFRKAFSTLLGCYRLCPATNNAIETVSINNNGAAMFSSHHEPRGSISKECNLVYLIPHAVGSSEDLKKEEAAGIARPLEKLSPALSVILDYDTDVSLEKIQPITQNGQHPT

D(2) dopamine receptor = D(2) dopamine receptor (Homo sapiens, UniProt P14416)
D(2) dopamine receptor, sequence (P14416 whole entry): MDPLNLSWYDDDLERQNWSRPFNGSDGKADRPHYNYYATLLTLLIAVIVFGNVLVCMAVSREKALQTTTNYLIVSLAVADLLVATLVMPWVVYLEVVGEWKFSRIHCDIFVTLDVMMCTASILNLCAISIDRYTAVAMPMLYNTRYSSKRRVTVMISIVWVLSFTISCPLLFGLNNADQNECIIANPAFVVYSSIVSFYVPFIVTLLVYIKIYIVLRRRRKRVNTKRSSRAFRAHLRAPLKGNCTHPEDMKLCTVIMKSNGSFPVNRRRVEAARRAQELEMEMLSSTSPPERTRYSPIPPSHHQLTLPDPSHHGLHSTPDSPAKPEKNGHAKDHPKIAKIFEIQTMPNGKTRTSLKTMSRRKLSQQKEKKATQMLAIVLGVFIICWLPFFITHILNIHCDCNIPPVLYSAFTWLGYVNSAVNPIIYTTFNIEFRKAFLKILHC

[4] = molecular target: Muscarinic acetylcholine receptor M4 (Homo sapiens, UniProt P08173)
D(3) dopamine receptor = D(3) dopamine receptor (Homo sapiens, UniProt P35462)
D(3) dopamine receptor, sequence (P35462 as listed by the source): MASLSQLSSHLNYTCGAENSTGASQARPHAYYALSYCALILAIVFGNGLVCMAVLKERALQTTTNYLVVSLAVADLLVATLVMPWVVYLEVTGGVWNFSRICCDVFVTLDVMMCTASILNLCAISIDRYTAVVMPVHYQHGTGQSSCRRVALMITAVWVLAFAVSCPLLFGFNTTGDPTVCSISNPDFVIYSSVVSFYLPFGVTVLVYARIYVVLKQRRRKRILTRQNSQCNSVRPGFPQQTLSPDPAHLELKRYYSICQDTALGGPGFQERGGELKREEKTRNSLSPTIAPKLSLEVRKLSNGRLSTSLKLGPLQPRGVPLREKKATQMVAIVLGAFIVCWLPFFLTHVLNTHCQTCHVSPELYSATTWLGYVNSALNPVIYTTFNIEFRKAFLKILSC

[5] = molecular target: 5-hydroxytryptamine receptor 2A (Homo sapiens, UniProt P28223)
5-hydroxytryptamine receptor 2A, sequence (P28223 whole entry): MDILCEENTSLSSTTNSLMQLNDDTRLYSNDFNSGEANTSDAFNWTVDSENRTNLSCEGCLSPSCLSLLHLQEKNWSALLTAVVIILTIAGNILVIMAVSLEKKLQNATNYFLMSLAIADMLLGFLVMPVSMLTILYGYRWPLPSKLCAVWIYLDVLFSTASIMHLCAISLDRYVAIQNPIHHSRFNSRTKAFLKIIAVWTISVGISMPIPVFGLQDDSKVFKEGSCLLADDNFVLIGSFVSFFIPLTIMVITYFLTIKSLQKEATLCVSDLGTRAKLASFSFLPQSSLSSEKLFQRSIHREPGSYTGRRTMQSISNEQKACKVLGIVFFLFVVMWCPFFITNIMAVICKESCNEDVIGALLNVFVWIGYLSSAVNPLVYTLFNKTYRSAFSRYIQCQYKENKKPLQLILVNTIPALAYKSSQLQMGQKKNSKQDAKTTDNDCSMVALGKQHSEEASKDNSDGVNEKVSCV

[6] = molecular target: 5-hydroxytryptamine receptor 3A (Mus musculus, UniProt P23979)
5-hydroxytryptamine receptor 3A (Mus musculus, UniProt P23979), sequence (P23979 as listed by the source): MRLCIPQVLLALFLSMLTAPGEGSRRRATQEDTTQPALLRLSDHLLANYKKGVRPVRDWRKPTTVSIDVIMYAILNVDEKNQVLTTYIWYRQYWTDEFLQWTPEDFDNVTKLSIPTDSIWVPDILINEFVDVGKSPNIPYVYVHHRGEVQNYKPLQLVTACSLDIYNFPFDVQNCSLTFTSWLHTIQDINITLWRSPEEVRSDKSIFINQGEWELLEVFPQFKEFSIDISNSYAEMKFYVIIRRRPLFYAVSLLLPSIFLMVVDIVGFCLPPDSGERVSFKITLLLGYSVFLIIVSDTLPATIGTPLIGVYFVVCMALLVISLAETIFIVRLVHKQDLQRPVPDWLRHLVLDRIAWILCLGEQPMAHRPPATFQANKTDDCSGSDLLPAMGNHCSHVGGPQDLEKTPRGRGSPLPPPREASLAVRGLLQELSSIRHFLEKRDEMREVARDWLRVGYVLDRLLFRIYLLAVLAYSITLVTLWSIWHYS

[7] = molecular target: 5-hydroxytryptamine receptor 7 (Homo sapiens, UniProt P34969)
[8] = molecular target: Muscarinic acetylcholine receptor M5 (Homo sapiens, UniProt P08912)
Muscarinic acetylcholine receptor M5, sequence (P08912 whole entry): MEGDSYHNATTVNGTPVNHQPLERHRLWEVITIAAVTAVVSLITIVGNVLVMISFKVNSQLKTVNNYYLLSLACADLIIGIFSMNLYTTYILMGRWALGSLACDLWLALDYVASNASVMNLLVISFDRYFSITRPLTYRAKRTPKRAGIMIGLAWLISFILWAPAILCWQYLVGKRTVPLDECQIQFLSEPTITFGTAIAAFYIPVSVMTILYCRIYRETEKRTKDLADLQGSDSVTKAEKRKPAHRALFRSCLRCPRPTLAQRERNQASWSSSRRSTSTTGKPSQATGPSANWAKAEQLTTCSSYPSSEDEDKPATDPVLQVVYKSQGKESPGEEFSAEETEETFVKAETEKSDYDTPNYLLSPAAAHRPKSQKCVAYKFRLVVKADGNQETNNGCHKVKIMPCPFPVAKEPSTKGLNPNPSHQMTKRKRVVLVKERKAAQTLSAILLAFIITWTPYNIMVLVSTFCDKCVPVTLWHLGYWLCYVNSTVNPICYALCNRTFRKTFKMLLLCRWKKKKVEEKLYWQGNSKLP

[9] = molecular target: Gamma-aminobutyric acid receptor subunit alpha-1 (Rattus norvegicus, UniProt P62813)
Gamma-aminobutyric acid receptor subunit alpha-1, sequence (P62813 whole entry): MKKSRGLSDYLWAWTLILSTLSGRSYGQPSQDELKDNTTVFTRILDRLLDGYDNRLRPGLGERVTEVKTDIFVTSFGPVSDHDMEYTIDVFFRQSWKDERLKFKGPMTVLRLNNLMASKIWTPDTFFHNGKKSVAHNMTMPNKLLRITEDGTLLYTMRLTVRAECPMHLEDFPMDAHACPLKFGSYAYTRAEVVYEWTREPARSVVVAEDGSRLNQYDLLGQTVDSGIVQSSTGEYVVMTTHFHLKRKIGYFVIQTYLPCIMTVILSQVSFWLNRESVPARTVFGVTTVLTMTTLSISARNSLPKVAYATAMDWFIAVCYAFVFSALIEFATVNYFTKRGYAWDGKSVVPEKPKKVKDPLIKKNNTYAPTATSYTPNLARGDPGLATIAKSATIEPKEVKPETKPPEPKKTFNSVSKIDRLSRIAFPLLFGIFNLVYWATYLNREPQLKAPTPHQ

D(4) dopamine receptor = D(4) dopamine receptor (Homo sapiens, UniProt P21917)
D(4) dopamine receptor, sequence (P21917 whole entry): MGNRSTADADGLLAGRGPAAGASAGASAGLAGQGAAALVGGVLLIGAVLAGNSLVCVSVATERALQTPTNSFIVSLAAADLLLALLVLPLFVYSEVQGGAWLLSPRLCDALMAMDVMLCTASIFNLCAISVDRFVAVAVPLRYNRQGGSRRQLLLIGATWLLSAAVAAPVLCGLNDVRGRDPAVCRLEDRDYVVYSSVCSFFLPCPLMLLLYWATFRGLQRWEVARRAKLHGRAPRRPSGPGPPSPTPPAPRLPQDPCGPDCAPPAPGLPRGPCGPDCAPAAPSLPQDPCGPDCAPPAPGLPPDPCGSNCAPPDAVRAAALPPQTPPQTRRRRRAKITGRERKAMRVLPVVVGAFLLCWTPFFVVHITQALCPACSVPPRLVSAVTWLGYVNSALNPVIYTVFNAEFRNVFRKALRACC

[10] = molecular target: 5-hydroxytryptamine receptor 3A (Homo sapiens, UniProt P46098)
[11] = molecular target: Muscarinic acetylcholine receptor M1 (Homo sapiens, UniProt P11229)
[12] = molecular target: Alpha-2C adrenergic receptor (Rattus norvegicus, UniProt P22086)
[13] = molecular target: 5-hydroxytryptamine receptor 2C (Homo sapiens, UniProt P28335)
[14] = molecular target: Gamma-aminobutyric acid (GABA) B receptor 1 (Rattus norvegicus, UniProt Q6MFX8)

Hrh3 protein, sequence (Q5PPG3 whole entry): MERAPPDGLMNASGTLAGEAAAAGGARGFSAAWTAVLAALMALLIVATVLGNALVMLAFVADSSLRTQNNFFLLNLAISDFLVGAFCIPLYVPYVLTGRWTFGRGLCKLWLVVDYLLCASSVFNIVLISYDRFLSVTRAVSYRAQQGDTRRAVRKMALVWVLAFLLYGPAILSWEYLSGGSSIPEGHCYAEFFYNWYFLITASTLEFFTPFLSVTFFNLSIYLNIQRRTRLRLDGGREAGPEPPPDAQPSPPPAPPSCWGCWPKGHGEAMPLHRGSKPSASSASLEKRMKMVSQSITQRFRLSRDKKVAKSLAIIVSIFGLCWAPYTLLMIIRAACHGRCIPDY

CC(CN(C)C)CN1c2ccccc2Sc2ccc(C#N)cc21 (stereo unspecified) [CAS_62865]
Ki (Histamine H2 receptor): 351 nM | Ki [1]: 2.3 nM | Ki (Hrh3 protein): > 10000 nM | Ki [2]: 32 nM | Ki (Histamine H1 receptor): 9.3 nM | Ki [3]: 42 nM | Ki (D(1A) dopamine receptor): 3.8 nM | Ki (D(2) dopamine receptor): 5.8 nM | Ki [4]: 12 nM | Ki (D(3) dopamine receptor): 2.5 nM | Ki [5]: 1.5 nM | Ki [6]: 75 nM | Ki [7]: 22 nM | Ki [8]: 35 nM | Ki [9]: > 10000 nM | Ki (D(4) dopamine receptor): 5.3 nM | Ki [10]: 2940 nM | Ki [11]: 13 nM | Ki [12]: 1320 nM | Ki [13]: 12 nM | Ki [14]: > 10000 nM
